Laboratory results as given in US20100298285A1, “Biclycloheteroaryl Compounds as P2x7 Modulators and Uses Thereof” (priority 2006, published 2010).

system: IL-1β release, THP-1 cells; test: IL-1β release assay in differentiated THP-1 cells stimulated with BzATP (Example 9); assay type: cell-based; conditions: Homo sapiens; THP-1 cells, BzATP 250 uM, four parameter logistic fit
How it was run: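 THP-1 cells differentiated 16 h with 100 ng/mL LPS + 100 ng/mL IFN-γ, re-primed 2 h with fresh LPS 100 ng/mL, pretreated 30 min with compound, then stimulated with BzATP 250 uM final for 45 min. Supernatant IL-1β by ELISA; background-adjusted % inhibition, IC50 from four-parameter logistic fit.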

IC50 [nM]	SMILES
203	Cc1ccc2c(c1NC(=O)Cc1ccc(C(F)(F)F)c(F)c1)CCN(C(=O)C(C)(C)CO)C2 [Compound 3472]
23.8	Cc1ccc2c(c1NC(=O)Cc1ccc(C(F)(F)F)c(F)c1)CCN(C(=O)C1CCC1)C2 [Compound 3473]
201	COc1ccc2c(c1NC(=O)Cc1ccc(C(F)(F)F)c(F)c1)CCN(C(=O)C(C)(C)C)C2 [Compound 3474, N-[2-(2,2-Dimethyl-propionyl)-6-methoxy-1,2,3,4-tetrahydro-isoquinolin-5-yl]-2-(3-fluoro-4-trifluoromethyl-phenyl)-acetamide]
243	COc1ccc2c(c1NC(=O)Cc1ccc(C(F)(F)F)c(F)c1)CCN(C(=O)C1CC1)C2 [Compound 3475]
325	COc1ccc2c(c1NC(=O)Cc1ccc(C(F)(F)F)c(F)c1)CCN(C(=O)C1(O)CC1)C2 [Compound 3476, 2-(3-Fluoro-4-trifluoromethyl-phenyl)-N-[2-(1-hydroxy-cyclopropanecarbonyl)-6-methoxy-1,2,3,4-tetrahydro-isoquinolin-5-yl]-acetamide]
280	COc1ccc2c(c1NC(=O)Cc1ccc(C(F)(F)F)c(F)c1)CCN(C(=O)C1(O)CCCCC1)C2 [Compound 3477, 2-(3-Fluoro-4-trifluoromethyl-phenyl)-N-[2-(1-hydroxy-cyclohexanecarbonyl)-6-methoxy-1,2,3,4-tetrahydro-isoquinolin-5-yl]-acetamide]
192	COc1ccc2c(c1NC(=O)Cc1ccc(C(F)(F)F)c(F)c1)CCN(C(=O)CC1(O)CCCC(C)(C)C1)C2 (centres unmarked) [Compound 3478, 2-(3-Fluoro-4-trifluoromethyl-phenyl)-N-{2-[2-(1-hydroxy-3,3-dimethyl-cyclohexyl)-acetyl]-6-methoxy-1,2,3,4-tetrahydro-isoquinolin-5-yl}-acetamide]
171	COc1ccc2c(c1NC(=O)Cc1ccc(C(F)(F)F)c(F)c1)CCN(C(=O)C(C)(C)CO)C2 [Compound 3479, 2-(3-Fluoro-4-trifluoromethyl-phenyl)-N-[2-(3-hydroxy-2,2-dimethyl-propionyl)-6-methoxy-1,2,3,4-tetrahydro-isoquinolin-5-yl]-acetamide]
74.9	Cc1ccc2c(c1NC(=O)Cc1ccc(C(F)(F)F)c(F)c1)CCN(C(=O)[C@H]1CCN1)C2 [Compound 3480]
926	COc1ccc2c(c1NC(=O)Cc1ccc(C(F)(F)F)c(F)c1)CCN(C(=O)C(C)(C)O)C2 [Compound 3481]
165	CC(C)(C)C(=O)N1CCc2c(ccc(C3CC3)c2NC(=O)Cc2ccc(C(F)(F)F)c(F)c2)C1 [Compound 3482]
